Legend:
[1] = target: T1, Equilibrative nucleoside transporter 4 (Homo sapiens, UniProt Q7RTT9); assay: Induction of human PMAT activity expressed in Xenopus laevis oocytes assessed as induction of inward current at 2.5 mM in NaCl buffer at pH 7.5 by two-microelectrode voltage-clamp method; format: cell-based; settings: pH 7.5, 2500 µM
T1 sequence (Q7RTT9 whole entry): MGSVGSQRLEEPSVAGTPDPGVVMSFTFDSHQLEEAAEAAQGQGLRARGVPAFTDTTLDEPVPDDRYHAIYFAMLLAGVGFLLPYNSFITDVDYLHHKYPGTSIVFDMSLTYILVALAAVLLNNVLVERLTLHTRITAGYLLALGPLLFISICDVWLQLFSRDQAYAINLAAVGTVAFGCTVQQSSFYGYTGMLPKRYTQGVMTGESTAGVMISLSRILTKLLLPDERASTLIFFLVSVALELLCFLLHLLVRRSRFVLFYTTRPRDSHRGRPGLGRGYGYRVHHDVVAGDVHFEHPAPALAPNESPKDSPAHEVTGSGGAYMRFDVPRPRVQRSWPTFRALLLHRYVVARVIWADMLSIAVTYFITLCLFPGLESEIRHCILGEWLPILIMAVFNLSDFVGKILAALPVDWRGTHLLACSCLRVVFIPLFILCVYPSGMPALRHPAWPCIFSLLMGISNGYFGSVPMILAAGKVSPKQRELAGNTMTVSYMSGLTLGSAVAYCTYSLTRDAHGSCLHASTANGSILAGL

[2] = target: T1, Equilibrative nucleoside transporter 4; assay: Induction of human PMAT activity expressed in Xenopus laevis oocytes assessed as induction of inward current at 2.5 mM in NaCl buffer at pH 6 by two-microelectrode voltage-clamp method; format: cell-based; settings: pH 6, 2500 µM
[3] = target: T2, PMAT (equilibrative nucleoside transporter 4) (Homo sapiens, UniProt Q7RTT9); assay: in vitro; settings: not told, pH 6
T2 sequence (Q7RTT9 whole entry): T1 sequence (Q7RTT9 whole entry)

[4] = target: T2, PMAT (equilibrative nucleoside transporter 4); assay: Increase of human PMAT-mediated drug uptake expressed in Xenopus laevis oocytes in NaCl buffer at pH 6 at 100 uM after 60 mins relative to control; settings: Xenopus laevis oocytes expressing human PMAT
[5] = target: T2, PMAT (equilibrative nucleoside transporter 4); assay: in vitro; settings: not told, pH 6; remark: listed apart in the source

Structure (SMILES) | Activity [1] [nanoampere] | Activity [2] [nanoampere] | Km [3] [mM] | uptake ratio at 1 h, 100 µM [4] | Km [5] [mM]
NC12CC3CC(CC(C3)C1)C2 [AMANTADINE] | -7.26 | -21.2 |  |  | 
CN1CCC[C@H]1c1cccnc1 [NICOTINE] | -6.3 | -75.7 |  |  | 
CN1CC=C(c2ccccc2)CC1 | -5.67 | -62.7 |  |  | 
NCCc1c[nH]cn1 [HISTAMINE] | -30.5 | -110 | 10 | 2 | 10

The remaining lines, values ahead:

Activity [1] [nanoampere] | Activity [2] [nanoampere] | Km [3] [mM] | uptake ratio at 1 h, 100 µM [4] | Km [5] [mM] | Structure (SMILES)
-2.02 | -38 |  |  |  | CN(C)C(=N)N=C(N)N [METFORMIN]
-0.627 | -11.7 |  |  |  | CC[N+](CC)(CC)CC [TETRYLAMMONIUM]
